Results from patent US20250051344A1, “BIFUNCTIONAL SELECTIVE DEGRADERS OF SMARCA2 AND THERAPEUTIC USES THEREOF” (Nurix Therapeutics, Inc., priority 2023, published 2025).

How the values were obtained:
SMARCA2 = target: T1, SMARCA2 (Homo sapiens, UniProt P51531); assay: SMARCA2 Cellular Degradation Assay (Western blot analysis on Jess platform); type: cell-based; settings: for DC50 / Dmax: cellular degradation; for Fold Selectivity SMARCA4/2: ratio DC50 SMARCA4 / DC50 SMARCA2
T1 construct: endogenous in cells
T1 sequence (P51531 whole entry, species assumed): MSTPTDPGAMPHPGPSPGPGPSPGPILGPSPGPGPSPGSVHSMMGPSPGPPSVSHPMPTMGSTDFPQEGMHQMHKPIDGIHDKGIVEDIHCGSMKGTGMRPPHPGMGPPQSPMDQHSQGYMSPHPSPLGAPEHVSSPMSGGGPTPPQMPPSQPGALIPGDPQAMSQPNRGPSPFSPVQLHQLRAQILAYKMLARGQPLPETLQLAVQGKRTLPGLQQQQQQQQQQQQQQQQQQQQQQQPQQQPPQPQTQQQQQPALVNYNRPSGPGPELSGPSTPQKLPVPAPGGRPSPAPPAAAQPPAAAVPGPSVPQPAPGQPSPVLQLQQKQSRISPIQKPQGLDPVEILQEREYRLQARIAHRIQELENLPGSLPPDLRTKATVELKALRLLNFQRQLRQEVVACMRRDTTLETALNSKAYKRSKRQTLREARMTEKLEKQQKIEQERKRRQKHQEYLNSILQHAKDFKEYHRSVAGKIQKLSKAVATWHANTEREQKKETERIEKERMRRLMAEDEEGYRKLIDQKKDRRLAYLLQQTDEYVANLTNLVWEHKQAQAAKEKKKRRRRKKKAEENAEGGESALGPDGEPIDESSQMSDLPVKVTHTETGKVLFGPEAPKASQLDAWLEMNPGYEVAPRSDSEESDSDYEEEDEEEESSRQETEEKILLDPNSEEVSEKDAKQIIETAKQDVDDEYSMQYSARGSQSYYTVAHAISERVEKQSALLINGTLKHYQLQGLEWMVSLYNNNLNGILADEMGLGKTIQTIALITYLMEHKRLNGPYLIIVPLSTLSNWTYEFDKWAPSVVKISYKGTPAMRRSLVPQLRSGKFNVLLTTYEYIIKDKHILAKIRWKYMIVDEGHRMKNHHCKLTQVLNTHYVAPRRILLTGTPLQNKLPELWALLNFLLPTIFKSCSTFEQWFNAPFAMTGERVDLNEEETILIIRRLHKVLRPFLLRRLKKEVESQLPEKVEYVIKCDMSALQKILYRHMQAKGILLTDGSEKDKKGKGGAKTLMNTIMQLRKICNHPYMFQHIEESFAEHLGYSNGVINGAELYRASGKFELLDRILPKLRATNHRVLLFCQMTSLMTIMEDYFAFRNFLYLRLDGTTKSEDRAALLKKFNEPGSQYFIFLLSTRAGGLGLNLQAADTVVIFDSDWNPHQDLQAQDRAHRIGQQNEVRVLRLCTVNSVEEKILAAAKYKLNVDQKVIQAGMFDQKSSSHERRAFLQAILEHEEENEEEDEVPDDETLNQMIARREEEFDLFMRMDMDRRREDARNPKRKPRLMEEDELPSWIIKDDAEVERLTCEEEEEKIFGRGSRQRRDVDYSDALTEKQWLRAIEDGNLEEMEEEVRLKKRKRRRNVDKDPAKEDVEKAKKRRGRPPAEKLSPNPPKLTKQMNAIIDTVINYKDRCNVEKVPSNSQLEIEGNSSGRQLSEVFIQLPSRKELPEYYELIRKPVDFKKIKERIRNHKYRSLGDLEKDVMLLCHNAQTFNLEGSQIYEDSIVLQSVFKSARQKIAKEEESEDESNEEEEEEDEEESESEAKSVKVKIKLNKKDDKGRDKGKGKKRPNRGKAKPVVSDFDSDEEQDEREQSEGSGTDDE
Procedure, shortened: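 Lysates of cells extracted from tumors, 5 μg total protein per capillary, were probed for SMARCA2 and β-actin by capillary Western on Jess using chemiluminescence and fluorescence detection. SMARCA2 peak area was background-subtracted and normalized to actin, then expressed as % remaining relative to vehicle control.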

SMARCA4 = target: T2, SMARCA4 (Homo sapiens, UniProt P51532); assay: Cellular degradation assay, SMARCA4 (Table 1); type: cell-based
T2 construct: endogenous in cells
T2 sequence (P51532 whole entry, species assumed): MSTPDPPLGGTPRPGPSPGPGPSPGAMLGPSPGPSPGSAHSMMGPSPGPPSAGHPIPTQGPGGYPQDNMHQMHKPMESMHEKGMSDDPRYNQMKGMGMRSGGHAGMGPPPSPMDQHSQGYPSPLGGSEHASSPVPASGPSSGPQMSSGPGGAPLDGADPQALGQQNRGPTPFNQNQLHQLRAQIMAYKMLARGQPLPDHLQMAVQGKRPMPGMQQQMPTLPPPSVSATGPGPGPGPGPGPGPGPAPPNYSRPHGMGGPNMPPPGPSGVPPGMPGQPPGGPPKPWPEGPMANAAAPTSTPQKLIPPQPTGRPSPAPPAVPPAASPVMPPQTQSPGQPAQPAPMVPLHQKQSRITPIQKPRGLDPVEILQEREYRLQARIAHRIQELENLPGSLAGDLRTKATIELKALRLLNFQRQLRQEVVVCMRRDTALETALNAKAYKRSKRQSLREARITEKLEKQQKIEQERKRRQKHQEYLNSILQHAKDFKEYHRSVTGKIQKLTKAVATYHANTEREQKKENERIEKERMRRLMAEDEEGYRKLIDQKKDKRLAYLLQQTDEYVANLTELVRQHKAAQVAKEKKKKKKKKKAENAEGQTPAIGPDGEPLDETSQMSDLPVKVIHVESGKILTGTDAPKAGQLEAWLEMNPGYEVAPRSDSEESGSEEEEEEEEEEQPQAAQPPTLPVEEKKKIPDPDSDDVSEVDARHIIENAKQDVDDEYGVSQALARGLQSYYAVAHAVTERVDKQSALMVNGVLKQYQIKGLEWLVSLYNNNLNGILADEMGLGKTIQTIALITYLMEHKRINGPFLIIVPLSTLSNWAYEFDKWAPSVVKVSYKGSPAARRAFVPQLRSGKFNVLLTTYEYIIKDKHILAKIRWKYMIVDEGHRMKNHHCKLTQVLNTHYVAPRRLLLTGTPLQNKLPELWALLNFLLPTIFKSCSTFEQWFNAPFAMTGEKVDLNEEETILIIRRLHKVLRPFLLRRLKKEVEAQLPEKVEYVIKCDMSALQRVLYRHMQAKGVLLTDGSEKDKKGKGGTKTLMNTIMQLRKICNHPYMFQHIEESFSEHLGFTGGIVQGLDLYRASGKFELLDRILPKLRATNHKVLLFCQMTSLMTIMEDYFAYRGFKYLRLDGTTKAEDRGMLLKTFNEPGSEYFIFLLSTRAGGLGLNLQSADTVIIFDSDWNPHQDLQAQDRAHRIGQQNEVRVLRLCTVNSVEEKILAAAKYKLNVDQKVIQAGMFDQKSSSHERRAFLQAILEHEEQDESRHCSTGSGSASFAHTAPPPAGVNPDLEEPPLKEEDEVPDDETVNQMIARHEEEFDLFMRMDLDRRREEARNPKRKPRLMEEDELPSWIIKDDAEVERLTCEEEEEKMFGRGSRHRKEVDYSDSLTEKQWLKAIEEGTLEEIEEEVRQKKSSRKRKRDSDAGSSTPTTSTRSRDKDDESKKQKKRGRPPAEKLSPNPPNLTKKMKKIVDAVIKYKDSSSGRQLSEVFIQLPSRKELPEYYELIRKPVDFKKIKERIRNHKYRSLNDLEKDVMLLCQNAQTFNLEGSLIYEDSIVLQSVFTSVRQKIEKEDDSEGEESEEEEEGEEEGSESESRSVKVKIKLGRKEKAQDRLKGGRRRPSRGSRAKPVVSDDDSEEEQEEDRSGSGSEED

| Structure (SMILES) | DC50 (SMARCA2) [nM] | Dmax (SMARCA2) [%] | Fold Selectivity SMARCA4/2 (SMARCA2) | Dmax (SMARCA4) [%] | DC50 (SMARCA4) [nM] |
| --- | --- | --- | --- | --- | --- |
| Cn1nc(N2CCC(=O)NC2=O)c2cccc(N3CCC(CN4CC5(C4)CN(C(=O)C4(c6ccccc6)CCN(c6cnnc(-c7ccccc7O)c6)CC4)C5)CC3)c21 [Example 123, 1-(7-{4-[(6-{1-[6-(2-hydroxyphenyl)pyridazin-4-yl]-4-phenylpiperidine-4-carbonyl}-2,6-diazaspiro[3.3]heptan-2-yl)methyl]piperidin-1-yl}-1-methyl-1H-indazol-3-yl)-1,3-diazinane-2,4-dione] | 68.1 | 66.8 | 147 | 35 |  |
| COc1cccc(C2(C(=O)NC3CCN(CC4CCN(c5ccc([C@H]6CCC(=O)NC6=O)cc5)CC4)C4(CCC4)C3)CCN(c3cnnc(-c4ccccc4O)c3)CC2)c1 (stereo partly drawn) [Example 169, N-{5-[(1-{4-[(3R)-2,6-dioxopiperidin-3-yl]phenyl}piperidin-4-yl)methyl]-5-azaspiro[3.5]nonan-8-yl}-1-[6-(2-hydroxyphenyl)pyridazin-4-yl]-4-(3-methoxyphenyl)piperidine-4-carboxamide] | 6.28 | 86.6 | 17 | 62 | 104 |
| O=C1CC[C@H](c2ccc(N3CCC(CCN4CCC(C(=O)NCC5(c6ccccc6)CCN(c6cnnc(-c7ccccc7O)c6)CC5)C5CC54)CC3)cc2)C(=O)N1 (mixture of isomers) [Example 84, rac-2-(2-(1-(4-((r)-2,6-dioxopiperidin-3-yl)phenyl)piperidin-4-yl)ethyl)-n-((1-(6-(2-hydroxyphenyl)pyridazin-4-yl)-4-phenylpiperidin-4-yl)methyl)-2-azabicyclo[4.1.0]heptane-5-carboxamide] | 4.23 | 89.5 | 11 | 61.9 | 46.5 |
| CN(CC1(c2ccccc2)CCN(c2cnnc(-c3ccccc3O)c2)CC1)C(=O)C1CCN(CCC2CCN(c3ccc([C@H]4CCC(=O)NC4=O)cc3)CC2)C2(CCC2)C1 (mixture of isomers) [Example 146, rac-5-(2-(1-(4-((r)-2,6-dioxopiperidin-3-yl)phenyl)piperidin-4-yl)ethyl)-n-((1-(6-(2-hydroxyphenyl)pyridazin-4-yl)-4-phenylpiperidin-4-yl)methyl)-n-methyl-5-azaspiro[3.5]nonane-8-carboxamide] | 5.57 | 83 | 4 | 72.8 | 21.9 |
| O=C1CC[C@H](c2ccc(N3CCC(CCN4CCC(OCC(F)(F)F)(C(=O)NCC5(c6ccccc6)CCN(c6cnnc(-c7ccccc7O)c6)CC5)CC4)CC3)cc2)C(=O)N1 (racemic) [Example 105, rac-(r)-1-(2-(1-(4-(2,6-dioxopiperidin-3-yl)phenyl)piperidin-4-yl)ethyl)-n-((1-(6-(2-hydroxyphenyl)pyridazin-4-yl)-4-phenylpiperidin-4-yl)methyl)-4-(2,2,2-trifluoroethoxy)piperidine-4-carboxamide] | 4.98 | 92.2 | 12 | 73.1 | 57.5 |
| O=C1CC[C@H](c2ccc(OCC3CCN(CC4CCN(C(=O)C5(c6ccccc6)CCN(c6cnnc(-c7ccccc7O)c6)CC5)CC4)CC3)cc2)C(=O)N1 [Example 36, (3R)-3-[4-({1-[(1-{1-[6-(2-hydroxyphenyl)pyridazin-4-yl]-4-phenylpiperidine-4-carbonyl}piperidin-4-yl)methyl]piperidin-4-yl}methoxy)phenyl]piperidine-2,6-dione] | 32.3 | 63.9 | 309.98 | 27.4 |  |
| CN(C(=O)C1(c2ccccc2)CCN(c2cnnc(-c3ccccc3O)c2)CC1)C1CCN(CCC2CCN(c3ccc(C4CCC(=O)NC4=O)c(F)c3)CC2)CC1 (racemic) [Example 151, rac-N-{1-[2-(1-{4-[(3R)-2,6-dioxopiperidin-3-yl]-3-fluorophenyl}piperidin-4-yl)ethyl]piperidin-4-yl}-1-[6-(2-hydroxyphenyl)pyridazin-4-yl]-N-methyl-4-phenylpiperidine-4-carboxamide] | 3.57 | 92.3 | 44 | 59.6 | 157 |
| COc1ccccc1C1(C(=O)N(C)C2CCN(CC3CCN(c4ccc([C@H]5CCC(=O)NC5=O)cc4)CC3)CC2)CCN(c2cnnc(-c3ccccc3O)c2)CC1 [Example 133, N-{1-[(1-{4-[(3R)-2,6-dioxopiperidin-3-yl]phenyl}piperidin-4-yl)methyl]piperidin-4-yl}-1-[6-(2-hydroxyphenyl)pyridazin-4-yl]-4-(2-methoxyphenyl)-n-methylpiperidine-4-carboxamide] | 2.5 | 90.5 | 8 | 74.8 | 20.5 |
| O=C1CCC(c2ccc(N3CCN(C(=O)CC4CCN(C(=O)C5(c6ccccc6)CCN(c6cnnc(-c7ccccc7O)c6)CC5)CC4)CC3)cc2)C(=O)N1 (racemic) [Example 18, rac-(3R)-3-(4-{4-[2-(1-{1-[6-(2-hydroxyphenyl)pyridazin-4-yl]-4-phenylpiperidine-4-carbonyl}piperidin-4-yl)acetyl]piperazin-1-yl}phenyl)piperidine-2,6-dione] |  | 44.1 | 1 | 27.7 |  |
| O=C1CC[C@H](c2ccc(N3CC[C@]4(C3)C[C@@H](N3CC5(CCN(C(=O)C6(c7ccccc7)CCN(c7cnnc(-c8ccccc8O)c7)CC6)CC5)C3)C4)cc2)C(=O)N1 (racemic) [Example 129, (3RS&)-3-{4-[(2rs,4sr)-2-(7-{1-[6-(2-hydroxyphenyl)pyridazin-4-yl]-4-phenylpiperidine-4-carbonyl}-2,7-diazaspiro[3.5]nonan-2-yl)-6-azaspiro[3.4]octan-6-yl]phenyl}piperidine-2,6-dione] | 20.3 | 78.2 | 6 | 61 | 125 |
| CN(C(=O)C1(Oc2ccccc2Cl)CCN(c2cnnc(-c3ccccc3O)c2)CC1)C1CCN(C(=O)CN2CCC(c3ccc([C@@H]4CCC(=O)NC4=O)cc3)CC2)CC1 (racemic) [Example 112] | 4.19 | 92 | 5 | 87.7 | 20.8 |
| O=C1CCC(c2ccc(N3CCC(CCN4CC5(C4)CN(C(=O)C4(c6ccccc6F)CCN(c6cnnc(-c7ccccc7O)c6)CC4)C5)CC3)cc2)C(=O)N1 (racemic) [Example 132, rac-(3R)-3-{4-[4-(2-{6-[4-(2-fluorophenyl)-1-[6-(2-hydroxyphenyl)pyridazin-4-yl]piperidine-4-carbonyl]-2,6-diazaspiro[3.3]heptan-2-yl}ethyl)piperidin-1-yl]phenyl}piperidine-2,6-dione] | 10.2 | 71.6 | 984 | 15 |  |
| C[C@@H](Oc1ccc(C2CCC(=O)NC2=O)cc1)C1CCN(C(=O)C2(c3ccccc3)CCN(c3cnnc(-c4ccccc4O)c3)CC2)CC1 (mixture of isomers) [Example 3, (3RS)-3-{4-[(1R)-1-(1-{1-[6-(2-hydroxyphenyl)pyridazin-4-yl]-4-phenylpiperidine-4-carbonyl}piperidin-4-yl)ethoxy]phenyl}piperidine-2,6-dione] |  | 54.2 | 1 | 17.5 |  |
| CN(C(=O)C1(c2cnn(C)c2)CCN(c2cnnc(-c3ccccc3O)c2)CC1)C1CCN(CCC2CCN(c3ccc(C4CCC(=O)NC4=O)cc3)CC2)CC1 (racemic) [Example 94, rac-N-{1-[2-(1-{4-[(3R)-2,6-dioxopiperidin-3-yl]phenyl}piperidin-4-yl)ethyl]piperidin-4-yl}-1-[6-(2-hydroxyphenyl)pyridazin-4-yl]-N-methyl-4-(1-methyl-1H-pyrazol-4-yl)piperidine-4-carboxamide] | 2.24 | 87.3 | 4454 | 33 |  |
| CC(C)c1cc(C2(C(=O)N3CC4(CN(CCC5CCN(c6ccc(C7CCC(=O)NC7=O)cc6)CC5)C4)C3)CCN(c3cnnc(-c4ccccc4O)c3)CC2)no1 (racemic) [Example 79, rac-(3R)-3-(4-{4-[2-(6-{1-[6-(2-hydroxyphenyl)pyridazin-4-yl]-4-[5-(propan-2-yl)-1,2-oxazol-3-yl]piperidine-4-carbonyl}-2,6-diazaspiro[3.3]heptan-2-yl)ethyl]piperidin-1-yl}phenyl)piperidine-2,6-dione] | 12.4 | 70.7 | 806 | 21.9 |  |
| O=C1CCC(Nc2ccc(C3CCN(CC(=O)N4CCC5(CC4)CN(C(=O)C4(c6ccccc6)CCN(c6cnnc(-c7ccccc7O)c6)CC4)C5)CC3)cc2)C(=O)N1 (racemic) [Example 108, rac-(r)-3-((4-(1-(2-(2-(1-(6-(2-hydroxyphenyl)pyridazin-4-yl)-4-phenylpiperidine-4-carbonyl)-2,7-diazaspiro[3.5]nonan-7-yl)-2-oxoethyl)piperidin-4-yl)phenyl)amino)piperidine-2,6-dione] | 23.4 | 66.5 | 8 | 52.5 | 179 |
| Cn1ccc(C2(C(=O)N3CC4(CN(CC5CCN(c6ccc(C7CCC(=O)NC7=O)cc6)CC5)C4)C3)CCN(c3cnnc(-c4ccccc4O)c3)CC2)n1 (racemic) [Example 54, rac-(R)-3-(4-(4-((6-(1-(6-(2-hydroxyphenyl)pyridazin-4-yl)-4-(1-methyl-1H-pyrazol-3-yl)piperidine-4-carbonyl)-2,6-diazaspiro[3.3]heptan-2-yl)methyl)piperidin-1-yl)phenyl)piperidine-2,6-dione] | 6.7 | 80.5 | 8.74 | 56.8 | 58.6 |
